The assay in a line: Antagonist activity at P2Y12 receptor in human platelet rich plasma assessed as inhibition of ADP-induced platelet aggregation by light transmission aggregometry.
A word on the IC50: it is the point on the concentration scale where inhibition reaches its midpoint. As for `CCCCCOC(=O)N1CCN(C(=O)[C@H](CCC(=O)O)NC(=O)c2nc(-c3ccccc3)cc(N3CCC(C(N)=O)CC3)n2)CC1` [(S)-4-(4-(4-carbamoylpiperidin-1-yl)-6-phenylpyrimidine-2-carboxamido)-5-oxo-5-(4-(pentyloxycarbonyl)piperazin-1-yl)pentanoic acid], the IC50 amounted to 2300 nM. For `CCCCOC(=O)N1CCN(C(=O)[C@H](CCC(=O)O)NC(=O)c2cc(N3CCC(N4CCCC4)CC3)nc(-c3ccccc3)n2)CC1` [(S)-5-(4-(butoxycarbonyl)piperazin-1-yl)-5-oxo-4-(2-phenyl-6-(4-(pyrrolidin-1-yl)piperidin-1-yl)pyrimidine-4-carboxamido)pentanoic acid] the value was 660 nM; for `CCCCCOC(=O)N1CCN(C(=O)[C@H](CCC(=O)O)NC(=O)c2cc(N3CCN(C)CC3)nc(-c3ccccc3)n2)CC1` [(S)-4-(6-(4-methylpiperazin-1-yl)-2-phenylpyrimidine-4-carboxamido)-5-oxo-5-(4-(pentyloxycarbonyl)piperazin-1-yl)pentanoic acid], 1400 nM. For `CCCCOC(=O)N1CCN(C(=O)[C@H](CCC(=O)O)NC(=O)c2cc(N3CCC(OC)CC3)nc(-c3ccccc3)n2)CC1` [(S)-5-(4-(butoxycarbonyl)piperazin-1-yl)-4-(6-(4-methoxypiperidin-1-yl)-2-phenylpyrimidine-4-carboxamido)-5-oxopentanoic acid] the value was 1800 nM. On to `CCCCCOC(=O)N1CCN(C(=O)[C@H](CCC(=O)O)NC(=O)c2cc(N3CCN(C(C)=O)CC3)nc(-c3ccccc3)n2)CC1` [(S)-4-(6-(4-acetylpiperazin-1-yl)-2-phenylpyrimidine-4-carboxamido)-5-oxo-5-(4-(pentyloxycarbonyl)piperazin-1-yl)pentanoic acid], for which the IC50 amounted to 1500 nM. To `CCCCCOC(=O)N1CCN(C(=O)[C@H](CCC(=O)O)NC(=O)c2cc(OCC3CCNCC3)nc(-c3ccccc3)n2)CC1` [(S)-5-oxo-5-(4-(pentyloxycarbonyl)piperazin-1-yl)-4-(2-phenyl-6-(piperidin-4-ylmethoxy)pyrimidine-4-carboxamido)pentanoic acid] belongs 1700 nM; to `CCCCCOC(=O)N1CCN(C(=O)[C@H](CCC(=O)O)NC(=O)c2cc(SC(C)(C)C)nc(-c3ccccc3)n2)CC1` [(S)-4-(6-(tert-butylthio)-2-phenylpyrimidine-4-carboxamido)-5-oxo-5-(4-(pentyloxycarbonyl)piperazin-1-yl)pentanoic acid], above 10000 nM; to `CCCCCOC(=O)N1CCN(C(=O)[C@H](CCC(=O)O)NC(=O)c2cc(N3CCC(CNC)CC3)nc(-c3ccccc3)n2)CC1` [(S)-4-(6-(4-((methylamino)methyl)piperidin-1-yl)-2-phenylpyrimidine-4-carboxamido)-5-oxo-5-(4-(pentyloxycarbonyl)piperazin-1-yl)pentanoic acid], 740 nM. Take `CCCCCOC(=O)N1CCN(C(=O)[C@H](CCC(=O)O)NC(=O)c2nc(NCCOC)cc(-c3ccccc3)n2)CC1` [(S)-4-(4-(2-methoxyethylamino)-6-phenylpyrimidine-2-carboxamido)-5-oxo-5-(4-(pentyloxycarbonyl)piperazin-1-yl)pentanoic acid]: the IC50 is above 10000 nM. Consider `CCCCCOC(=O)N1CCN(C(=O)[C@H](CCC(=O)O)NC(=O)c2cc(N3CCOCC3)nc(-c3ccccc3)n2)CC1` [(S)-4-(6-morpholino-2-phenylpyrimidine-4-carboxamido)-5-oxo-5-(4-(pentyloxycarbonyl)piperazin-1-yl)pentanoic acid], for which the IC50 came out at 6300 nM. To `CCCCOC(=O)N1CCN(C(=O)[C@H](CCC(=O)O)NC(=O)c2cc(N3CCC(N4CCOCC4)CC3)nc(-c3ccccc3)n2)CC1` [(S)-5-(4-(butoxycarbonyl)piperazin-1-yl)-4-(6-(4-morpholinopiperidin-1-yl)-2-phenylpyrimidine-4-carboxamido)-5-oxopentanoic acid] belongs 880 nM; to `CCCCCOC(=O)N1CCN(C(=O)[C@H](CCC(=O)O)NC(=O)c2nc(-c3ccccc3)cc(N3CCN(C(=O)N(C)C)CC3)n2)CC1` [(S)-4-(4-(4-(dimethylcarbamoyl)piperazin-1-yl)-6-phenylpyrimidine-2-carboxamido)-5-oxo-5-(4-(pentyloxycarbonyl)piperazin-1-yl)pentanoic acid], above 10000 nM; to `CCCCCOC(=O)N1CCN(C(=O)[C@H](CCC(=O)O)NC(=O)c2cc(N3CCC(C(N)=O)CC3)nc(-c3ccccc3)n2)CC1` [(S)-4-(6-(4-carbamoylpiperidin-1-yl)-2-phenylpyrimidine-4-carboxamido)-5-oxo-5-(4-(pentyloxycarbonyl)piperazin-1-yl)pentanoic acid], 690 nM. Take `CCCCOC(=O)N1CCN(C(=O)[C@H](CCC(=O)O)NC(=O)c2cc(N3CCC(C(=O)N4CCCC4)CC3)nc(-c3ccccc3)n2)CC1` [(S)-5-(4-(butoxycarbonyl)piperazin-1-yl)-5-oxo-4-(2-phenyl-6-(4-(pyrrolidine-1-carbonyl)piperidin-1-yl)pyrimidine-4-carboxamido)pentanoic acid]: the IC50 worked out at 390 nM.

`CCCCCOC(=O)N1CCN(C(=O)[C@H](CCC(=O)O)NC(=O)c2cc(NCC3CCNC3)nc(-c3ccccc3)n2)CC1` (stereo partly drawn) [(4S)-5-oxo-5-(4-(pentyloxycarbonyl)piperazin-1-yl)-4-(2-phenyl-6-(pyrrolidin-3-ylmethylamino)pyrimidine-4-carboxamido)pentanoic acid]: the IC50 was determined as 2600 nM.

`CCCCCOC(=O)N1CCN(C(=O)[C@H](CCC(=O)O)NC(=O)c2cc(N3CCC(CC(=O)NC)CC3)nc(-c3ccccc3)n2)CC1` [(S)-4-(6-(4-(2-(methylamino)-2-oxoethyl)piperidin-1-yl)-2-phenylpyrimidine-4-carboxamido)-5-oxo-5-(4-(pentyloxycarbonyl)piperazin-1-yl)pentanoic acid]: the IC50 stood at 1100 nM. To `CCCCCOC(=O)N1CCN(C(=O)[C@H](CCC(=O)O)NC(=O)c2cc(SC3CCCCC3)nc(-c3ccccc3)n2)CC1` [(S)-4-(6-(cyclohexylthio)-2-phenylpyrimidine-4-carboxamido)-5-oxo-5-(4-(pentyloxycarbonyl)piperazin-1-yl)pentanoic acid] belongs above 10000 nM; to `CCCCCOC(=O)N1CCN(C(=O)[C@H](CCC(=O)O)NC(=O)c2cc(N3CC(O)C3)nc(-c3ccccc3)n2)CC1` [(S)-4-(6-(3-hydroxyazetidin-1-yl)-2-phenylpyrimidine-4-carboxamido)-5-oxo-5-(4-(pentyloxycarbonyl)piperazin-1-yl)pentanoic acid], 3500 nM. To `CCCCCOC(=O)N1CCN(C(=O)[C@H](CCC(=O)O)NC(=O)c2cc(NCCOC)nc(-c3ccccc3)n2)CC1` [(S)-4-(6-(2-methoxyethylamino)-2-phenylpyrimidine-4-carboxamido)-5-oxo-5-(4-(pentyloxycarbonyl)piperazin-1-yl)pentanoic acid] belongs 2600 nM; to `CCCCCOC(=O)N1CCN(C(=O)[C@H](CCC(=O)O)NC(=O)c2cc(N3CCNCC3)nc(-c3ccccc3)n2)CC1` [(S)-5-oxo-5-(4-(pentyloxycarbonyl)piperazin-1-yl)-4-(2-phenyl-6-(piperazin-1-yl)pyrimidine-4-carboxamido)pentanoic acid], 1300 nM. For `CCCCCOC(=O)N1CCN(C(=O)[C@H](CCC(=O)O)NC(=O)c2cc(N3CCC(CN)CC3)nc(-c3ccccc3)n2)CC1` [(S)-4-(6-(4-(aminomethyl)piperidin-1-yl)-2-phenylpyrimidine-4-carboxamido)-5-oxo-5-(4-(pentyloxycarbonyl)piperazin-1-yl)pentanoic acid] the value was 490 nM; for `CCCCCOC(=O)N1CCN(C(=O)[C@H](CCC(=O)O)NC(=O)c2nc(-c3ccccc3)cc(N3CCN(CCOC)CC3)n2)CC1` [(S)-4-(4-(4-(2-methoxyethyl)piperazin-1-yl)-6-phenylpyrimidine-2-carboxamido)-5-oxo-5-(4-(pentyloxycarbonyl)piperazin-1-yl)pentanoic acid], 5100 nM. Consider `CCCCCOC(=O)N1CCN(C(=O)[C@H](CCC(=O)O)NC(=O)c2cc(N3CCC(CCN)CC3)nc(-c3ccccc3)n2)CC1` [(S)-4-(6-(4-(2-aminoethyl)piperidin-1-yl)-2-phenylpyrimidine-4-carboxamido)-5-oxo-5-(4-(pentyloxycarbonyl)piperazin-1-yl)pentanoic acid], for which the IC50 is 620 nM. For `CCCCCOC(=O)N1CCN(C(=O)[C@H](CCC(=O)O)NC(=O)c2cc(N3CCC(CNCC)CC3)nc(-c3ccccc3)n2)CC1` [(S)-4-(6-(4-((ethylamino)methyl)piperidin-1-yl)-2-phenylpyrimidine-4-carboxamido)-5-oxo-5-(4-(pentyloxycarbonyl)piperazin-1-yl)pentanoic acid] the value was 770 nM; for `CCCCCOC(=O)N1CCN(C(=O)[C@H](CCC(=O)O)NC(=O)c2cc(N3CCC(C(=O)NCC)CC3)nc(-c3ccccc3)n2)CC1` [(S)-4-(6-(4-(ethylcarbamoyl)piperidin-1-yl)-2-phenylpyrimidine-4-carboxamido)-5-oxo-5-(4-(pentyloxycarbonyl)piperazin-1-yl)pentanoic acid], 930 nM.

For the molecule `CCCCOC(=O)N1CCN(C(=O)[C@H](CCC(=O)O)NC(=O)c2cc(N3CCC(C(=O)N(CC)CC)CC3)nc(-c3ccccc3)n2)CC1` [(S)-5-(4-(butoxycarbonyl)piperazin-1-yl)-4-(6-(4-(diethylcarbamoyl)piperidin-1-yl)-2-phenylpyrimidine-4-carboxamido)-5-oxopentanoic acid], the IC50 was found to be 280 nM. Regarding `CCCCCOC(=O)N1CCN(C(=O)[C@H](CCC(=O)O)NC(=O)c2nc(-c3ccccc3)cc(N3CCC(CCN4CCCC4)CC3)n2)CC1` [(S)-5-oxo-5-(4-(pentyloxycarbonyl)piperazin-1-yl)-4-(4-phenyl-6-(4-(2-(pyrrolidin-1-yl)ethyl)piperidin-1-yl)pyrimidine-2-carboxamido)pentanoic acid], the IC50 is 1700 nM.

The values are drawn from BindingDB's records for doi:10.1016/j.bmcl.2009.09.017 (Pfizer, 2009).
